Source: EP4725957A1, “GROUP OF CYCLIC ALKALINE LIPOPEPTIDE COMPOUNDS, AND PREPARATION METHOD THEREFOR AND USE THEREOF” (Institute of Medicinal Biotechnology, Chinese Academy of …, priority 2023, dated 2024)
Values after ≈ are worked out from the molar mass of the structure shown. Bridge positions count the residues as written; N and C are the ends. Square brackets hold non-standard residues; d marks the D form. Peptide text beside a SMILES is read from it. * marks the point of attachment. Heptanoyl(6-Me) = CC(C)CCCCC(=O)*; Nonanoyl = CCCCCCCCC(=O)*; X1 = CC[C@H](C)CCCCC(=O)*; Heptanoyl = CCCCCCC(=O)*; Octanoyl = CCCCCCCC(=O)*; Orn = NCCC[C@H](N)C(=O)O; Dab = NCC[C@H](N)C(=O)O; Dap = NC[C@H](N)C(=O)O

Legend:
Format in all cases: cell-based
[1] = system: Acinetobacter baumannii ABA19-1; settings: ABA19-1
Summary of the method: (§1)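 Colonies from 18-24 h plates were suspended to 0.5 McFarland and diluted in MH broth. Two-fold compound dilutions were then mixed 1:1 with inoculum to reach 64 to 0.03 mg/L and (2-4) × 10^5 CFU/mL. Plates were sealed and incubated at 35-37°C for 16-20 h, after which the MIC was read.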

[2] = system: Acinetobacter baumannii NCTC 13304 (OXA-27); settings: NCTC 13304
Summary of the method: as §1

[3] = system: Escherichia coli ATCC BAA-2340 (KPC); settings: ATCC BAA-2340
Summary of the method: as §1

[4] = system: Escherichia coli ATCC BAA-2523; settings: ATCC BAA-2523
Summary of the method: as §1

[5] = system: Klebsiella pneumoniae ATCC BAA-1705 (KPC); settings: ATCC BAA-1705
Summary of the method: as §1

[6] = system: Klebsiella pneumoniae KPN+19-15; settings: KPN+19-15
Summary of the method: as §1

[7] = system: Pseudomonas aeruginosa ATCC 27853; settings: ATCC 27853
Summary of the method: as §1

[8] = system: Pseudomonas aeruginosa PAE19-3; settings: PAE19-3
Summary of the method: as §1

[9] = Nephrotoxicity assay: in vitro cytotoxicity of HK-2 cells by CCK-8 assay; settings: human, HK-2 cells (human renal), 72 h incubation with drug-containing medium
Summary of the method: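 HK-2 human renal cells in RPMI-1640 with 10% FBS were exposed to compounds at final 12.5–500 µg/mL for 72 h, then CCK-8 for 3 h and OD450 read. Viability was normalised to drug-free wells; IC50 came from logarithmic regression over three repeats, with polymyxin B as positive drug.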

Row | SMILES | MIC [1] | MIC [2] | MIC [3] | MIC [4] | MIC [5] | MIC [6] | MIC [7] | MIC [8] | IC50 at 72 h [9]
1 | CCCCCCCCC(=O)N[C@@H](CCN)C(=O)N[C@H](C(=O)N[C@H](CO)C(=O)N[C@H]1CCNC(=O)[C@H]([C@@H](C)O)NC(=O)[C@H](CCN)NC(=O)[C@H](CN)NC(=O)[C@H]([C@@H](C)O)NC(=O)[C@@H](Cc2ccccc2)NC(=O)[C@H](CCN)NC1=O)[C@@H](C)O [Compound 75, Nonanoyl-Dab-Thr-D-Ser-ring(4-10)[Dab-Dab-D-Phe-Thr-Dap-Dab-Thr]] (Nonanoyl-[Dab]T[dS][Dab][Dab][dF]T[Dap][Dab]T; lactam 4-C) | 0.06 µg/mL (≈ 0.0515 µM) | 0.03 µg/mL (≈ 0.0258 µM) | 0.06 µg/mL (≈ 0.0515 µM) | 0.06 µg/mL (≈ 0.0515 µM) | 0.25 µg/mL (≈ 0.215 µM) | 0.5 µg/mL (≈ 0.429 µM) | >64 µg/mL | 64 µg/mL (≈ 55 µM) | 310 ± 19.8 µg/mL (≈ 266 µM)
2 | CC[C@H](C)CCCCC(=O)N[C@@H](CCN)C(=O)N[C@H](C(=O)N[C@H](CO)C(=O)N[C@H]1CCNC(=O)[C@H]([C@@H](C)O)NC(=O)[C@H](CCN)NC(=O)[C@H](CCCN)NC(=O)[C@H]([C@@H](C)O)NC(=O)[C@@H](Cc2ccccc2)NC(=O)[C@H](CCN)NC1=O)[C@@H](C)O [Compound 76, (S)-6-methyloctanoyl-Dab-Thr-D-Ser-ring(4-10)[Dab-Dab-D-Phe-Thr-Orn-Dab-Thr]] (X1-[Dab]T[dS][Dab][Dab][dF]T[Orn][Dab]T; lactam 4-C) | 0.06 µg/mL (≈ 0.0503 µM) | ≤0.03 µg/mL | ≤0.03 µg/mL | ≤0.03 µg/mL | 0.25 µg/mL (≈ 0.21 µM) | 0.5 µg/mL (≈ 0.419 µM) | >64 µg/mL | 64 µg/mL (≈ 53.7 µM) | > 500 µg/mL
3 | CC(C)CCCCC(=O)N[C@@H](CCN)C(=O)N[C@H](C(=O)N[C@H](CO)C(=O)N[C@H]1CCNC(=O)[C@H]([C@@H](C)O)NC(=O)[C@H](CCN)NC(=O)[C@H](CCCN)NC(=O)[C@H]([C@@H](C)O)NC(=O)[C@@H](Cc2ccccc2)NC(=O)[C@H](CCN)NC1=O)[C@@H](C)O [Compound 77, 6-methylheptanoyl-Dab-Thr-D-Ser-ring(4-10)[Dab-Dab-D-Phe-Thr-Orn-Dab-Thr]] ({Heptanoyl(6-Me)}-[Dab]T[dS][Dab][Dab][dF]T[Orn][Dab]T; lactam 4-C) | 0.06 µg/mL (≈ 0.0509 µM) | ≤0.03 µg/mL | ≤0.03 µg/mL | ≤0.03 µg/mL | 0.25 µg/mL (≈ 0.212 µM) | 0.5 µg/mL (≈ 0.424 µM) | >64 µg/mL | 64 µg/mL (≈ 54.3 µM) | > 500 µg/mL
4 | CCCCCCCC(=O)N[C@@H](CCN)C(=O)N[C@H](C(=O)N[C@H](CO)C(=O)N[C@H]1CCNC(=O)[C@H]([C@@H](C)O)NC(=O)[C@H](CCN)NC(=O)[C@H](CCCN)NC(=O)[C@H]([C@@H](C)O)NC(=O)[C@@H](Cc2ccccc2)NC(=O)[C@H](CCN)NC1=O)[C@@H](C)O [Compound 78, Octanoyl-Dab-Thr-D-Ser-ring(4-10)[Dab-Dab-D-Phe-Thr-Orn-Dab-Thr]] (Octanoyl-[Dab]T[dS][Dab][Dab][dF]T[Orn][Dab]T; lactam 4-C) | 0.06 µg/mL (≈ 0.0509 µM) | ≤0.03 µg/mL | ≤0.03 µg/mL | ≤0.03 µg/mL | 0.25 µg/mL (≈ 0.212 µM) | 0.5 µg/mL (≈ 0.424 µM) | >64 µg/mL | 64 µg/mL (≈ 54.3 µM) | > 500 µg/mL
5 | CCCCCCC(=O)N[C@@H](CCN)C(=O)N[C@H](C(=O)N[C@H](CO)C(=O)N[C@H]1CCNC(=O)[C@H]([C@@H](C)O)NC(=O)[C@H](CCN)NC(=O)[C@H](CCCN)NC(=O)[C@H]([C@@H](C)O)NC(=O)[C@@H](Cc2ccccc2)NC(=O)[C@H](CCN)NC1=O)[C@@H](C)O [Compound 79, Heptanoyl-Dab-Thr-D-Ser-ring(4-10)[Dab-Dab-D-Phe-Thr-Orn-Dab-Thr]] (Heptanoyl-[Dab]T[dS][Dab][Dab][dF]T[Orn][Dab]T; lactam 4-C) | 0.06 µg/mL (≈ 0.0515 µM) | 0.03 µg/mL (≈ 0.0258 µM) | 0.03 µg/mL (≈ 0.0258 µM) | 0.03 µg/mL (≈ 0.0258 µM) | 0.25 µg/mL (≈ 0.215 µM) | 0.5 µg/mL (≈ 0.429 µM) | >64 µg/mL | 64 µg/mL (≈ 55 µM) | > 500 µg/mL
6 | CCCCCCCCC(=O)N[C@@H](CCN)C(=O)N[C@H](C(=O)N[C@H](CO)C(=O)N[C@H]1CCNC(=O)[C@H]([C@@H](C)O)NC(=O)[C@H](CCN)NC(=O)[C@H](CCCN)NC(=O)[C@H]([C@@H](C)O)NC(=O)[C@@H](Cc2ccccc2)NC(=O)[C@H](CCN)NC1=O)[C@@H](C)O [Compound 80, Nonanoyl-Dab-Thr-D-Ser-ring(4-10)[Dab-Dab-D-Phe-Thr-Orn-Dab-Thr]] (Nonanoyl-[Dab]T[dS][Dab][Dab][dF]T[Orn][Dab]T; lactam 4-C) | 0.06 µg/mL (≈ 0.0503 µM) | 0.03 µg/mL (≈ 0.0252 µM) | 0.06 µg/mL (≈ 0.0503 µM) | 0.06 µg/mL (≈ 0.0503 µM) | 0.25 µg/mL (≈ 0.21 µM) | 0.5 µg/mL (≈ 0.419 µM) | >64 µg/mL | 64 µg/mL (≈ 53.7 µM) | 288 ± 19.5 µg/mL (≈ 241 µM)
7 | CC[C@H](C)CCCCC(=O)N[C@@H](CCN)C(=O)N[C@H](C(=O)N[C@H](CO)C(=O)N[C@H]1CCNC(=O)[C@H]([C@@H](C)O)NC(=O)[C@H](CN)NC(=O)[C@H](CCN)NC(=O)[C@H]([C@@H](C)O)NC(=O)[C@@H](Cc2ccccc2)NC(=O)[C@H](CCN)NC1=O)[C@@H](C)O [Compound 81, (S)-6-methyloctanoyl-Dab-Thr-D-Ser-ring(4-10)[Dab-Dab-D-Phe-Thr-Dab-Dap-Thr]] (X1-[Dab]T[dS][Dab][Dab][dF]T[Dab][Dap]T; lactam 4-C) | 0.06 µg/mL (≈ 0.0515 µM) | ≤0.03 µg/mL | 0.03 µg/mL (≈ 0.0258 µM) | 0.03 µg/mL (≈ 0.0258 µM) | 0.25 µg/mL (≈ 0.215 µM) | 0.5 µg/mL (≈ 0.429 µM) | >64 µg/mL | 64 µg/mL (≈ 55 µM) | > 500 µg/mL
8 | CC(C)CCCCC(=O)N[C@@H](CCN)C(=O)N[C@H](C(=O)N[C@H](CO)C(=O)N[C@H]1CCNC(=O)[C@H]([C@@H](C)O)NC(=O)[C@H](CN)NC(=O)[C@H](CCN)NC(=O)[C@H]([C@@H](C)O)NC(=O)[C@@H](Cc2ccccc2)NC(=O)[C@H](CCN)NC1=O)[C@@H](C)O [Compound 82, 6-methylheptanoyl-Dab-Thr-D-Ser-ring(4-10)[Dab-Dab-D-Phe-Thr-Dab-Dap-Thr]] ({Heptanoyl(6-Me)}-[Dab]T[dS][Dab][Dab][dF]T[Dab][Dap]T; lactam 4-C) | 0.06 µg/mL (≈ 0.0522 µM) | ≤0.03 µg/mL | 0.03 µg/mL (≈ 0.0261 µM) | 0.03 µg/mL (≈ 0.0261 µM) | 0.25 µg/mL (≈ 0.217 µM) | 0.5 µg/mL (≈ 0.435 µM) | >64 µg/mL | 64 µg/mL (≈ 55.6 µM) | > 500 µg/mL
9 | CCCCCCCC(=O)N[C@@H](CCN)C(=O)N[C@H](C(=O)N[C@H](CO)C(=O)N[C@H]1CCNC(=O)[C@H]([C@@H](C)O)NC(=O)[C@H](CN)NC(=O)[C@H](CCN)NC(=O)[C@H]([C@@H](C)O)NC(=O)[C@@H](Cc2ccccc2)NC(=O)[C@H](CCN)NC1=O)[C@@H](C)O [Compound 83, Octanoyl-Dab-Thr-D-Ser-ring(4-10)[Dab-Dab-D-Phe-Thr-Dab-Dap-Thr]] (Octanoyl-[Dab]T[dS][Dab][Dab][dF]T[Dab][Dap]T; lactam 4-C) | 0.06 µg/mL (≈ 0.0522 µM) | ≤0.03 µg/mL | 0.06 µg/mL (≈ 0.0522 µM) | 0.06 µg/mL (≈ 0.0522 µM) | 0.25 µg/mL (≈ 0.217 µM) | 0.5 µg/mL (≈ 0.435 µM) | >64 µg/mL | 64 µg/mL (≈ 55.6 µM) | > 500 µg/mL
10 | CCCCCCC(=O)N[C@@H](CCN)C(=O)N[C@H](C(=O)N[C@H](CO)C(=O)N[C@H]1CCNC(=O)[C@H]([C@@H](C)O)NC(=O)[C@H](CN)NC(=O)[C@H](CCN)NC(=O)[C@H]([C@@H](C)O)NC(=O)[C@@H](Cc2ccccc2)NC(=O)[C@H](CCN)NC1=O)[C@@H](C)O [Compound 84, Heptanoyl-Dab-Thr-D-Ser-ring(4-10)[Dab-Dab-D-Phe-Thr-Dab-Dap-Thr]] (Heptanoyl-[Dab]T[dS][Dab][Dab][dF]T[Dab][Dap]T; lactam 4-C) | 0.06 µg/mL (≈ 0.0528 µM) | 0.03 µg/mL (≈ 0.0264 µM) | 0.25 µg/mL (≈ 0.22 µM) | 0.25 µg/mL (≈ 0.22 µM) | 0.25 µg/mL (≈ 0.22 µM) | 0.5 µg/mL (≈ 0.44 µM) | >64 µg/mL | 64 µg/mL (≈ 56.3 µM) | > 500 µg/mL
11 | CCCCCCCCC(=O)N[C@@H](CCN)C(=O)N[C@H](C(=O)N[C@H](CO)C(=O)N[C@H]1CCNC(=O)[C@H]([C@@H](C)O)NC(=O)[C@H](CN)NC(=O)[C@H](CCN)NC(=O)[C@H]([C@@H](C)O)NC(=O)[C@@H](Cc2ccccc2)NC(=O)[C@H](CCN)NC1=O)[C@@H](C)O [Compound 85, Nonanoyl-Dab-Thr-D-Ser-ring(4-10)[Dab-Dab-D-Phe-Thr-Dab-Dap-Thr]] (Nonanoyl-[Dab]T[dS][Dab][Dab][dF]T[Dab][Dap]T; lactam 4-C) | 0.06 µg/mL (≈ 0.0515 µM) | 0.03 µg/mL (≈ 0.0258 µM) | 0.25 µg/mL (≈ 0.215 µM) | 0.25 µg/mL (≈ 0.215 µM) | 0.25 µg/mL (≈ 0.215 µM) | 0.5 µg/mL (≈ 0.429 µM) | >64 µg/mL | 64 µg/mL (≈ 55 µM) | 357 ± 28.8 µg/mL (≈ 307 µM)
